Test results reported in ChEMBL document CHEMBL1201862, “PubChem BioAssay data set” (2004).
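48-hour exposure; five concentrations; linearly interpolated endpoints. GI50: concentration for 50% inhibition of growth.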 Calls of active or inactive are those of the source. Rule as the data show it: active = GI50 up to about 1.1 µM and inactive = higher.

Legend:
Test in all cases: NCI tumour cell line growth inhibition, 48 h
M14 = system: M14
COLO 205 = system: COLO 205
SF-539 = system: SF-539
HT-29 = system: HT-29
NCI-H23 = system: NCI-H23
HOP-92 = system: HOP-92
EKVX = system: EKVX
DU-145 = system: DU-145
MDA-N = system: MDA-N
HCT-15 = system: HCT-15
MDA-MB-435 = system: MDA-MB-435
SK-MEL-2 = system: SK-MEL-2
SF-295 = system: SF-295
SNB-75 = system: SNB-75
RPMI-8226 = system: RPMI-8226
CCRF-CEM = system: CCRF-CEM
UACC-62 = system: UACC-62
Malme-3M = system: Malme-3M
SR = system: SR
K562 = system: K562

SMILES | GI50 (M14) | GI50 (COLO 205) | GI50 (SF-539) | GI50 (HT-29) | GI50 (NCI-H23) | GI50 (HOP-92) | GI50 (EKVX) | GI50 (DU-145) | GI50 (MDA-N) | GI50 (HCT-15) [µM] | GI50 (MDA-MB-435) | GI50 (SK-MEL-2) | GI50 (SF-295) | GI50 (SNB-75) | GI50 (RPMI-8226) | GI50 (CCRF-CEM) | GI50 (UACC-62) | GI50 (Malme-3M) | GI50 (SR) | GI50 (K562)
CCCCNC(=S)N/C=C1\C(=O)Oc2ccccc2C1=O | 76.6 µM (inactive) | > 100 µM (inactive) | 98.4 µM (inactive) | > 100 µM (inactive) | 88.5 µM (inactive) | > 100 µM (inactive) | > 100 µM (inactive) | 99.3 µM (inactive) | 64 µM (inactive) | 48 | 61 µM (inactive) | 38.5 µM (inactive) | > 100 µM (inactive) | 2.69 µM (inactive) | – | – | – | – | – | –
O=P1(Oc2ccc(Cl)cc2)OCCS1 (stereo not drawn) | > 100 µM (inactive) | > 100 µM (inactive) | > 100 µM (inactive) | > 100 µM (inactive) | > 100 µM (inactive) | > 100 µM (inactive) | > 100 µM (inactive) | > 100 µM (inactive) | > 100 µM (inactive) | > 100 | – | > 100 µM (inactive) | > 100 µM (inactive) | > 100 µM (inactive) | > 100 µM (inactive) | > 100 µM (inactive) | > 100 µM (inactive) | > 100 µM (inactive) | > 100 µM (inactive) | –
O=C1c2ccccc2NC2C(O)c3ccccc3N12 (stereo not drawn) | 81.3 µM (inactive) | 41.1 µM (inactive) | > 100 µM (inactive) | 60 µM (inactive) | 29.8 µM (inactive) | > 100 µM (inactive) | 35.4 µM (inactive) | 45.6 µM (inactive) | – | 34.6 | 17.7 µM (inactive) | 52 µM (inactive) | 28.8 µM (inactive) | > 100 µM (inactive) | 10.1 µM (inactive) | 29.4 µM (inactive) | 23.6 µM (inactive) | 3.98 µM (inactive) | 38.4 µM (inactive) | 13.9 µM (inactive)
CN(C)C(=S)N/N=C\C(=N/NC(=S)N(C)C)c1ccccc1 | 5.51 µM (inactive) | 4.03 µM (inactive) | 10.1 µM (inactive) | 5.16 µM (inactive) | 9.46 µM (inactive) | 3.91 µM (inactive) | 7.36 µM (inactive) | 4.23 µM (inactive) | > 61.8 µM (inactive) | 2.71 | 34.9 µM (inactive) | 3.96 µM (inactive) | 4.93 µM (inactive) | 13.4 µM (inactive) | 4.68 µM (inactive) | – | 8.41 µM (inactive) | – | – | 4.68 µM (inactive)
O=C1CC(C2(O)C(=O)Nc3ccc([N+](=O)[O-])cc32)c2ccccc21 (stereo not drawn) | 18.9 µM (inactive) | 25.4 µM (inactive) | 32.5 µM (inactive) | 22.5 µM (inactive) | 26.7 µM (inactive) | 35 µM (inactive) | 28.6 µM (inactive) | – | – | 18.2 | – | 16.6 µM (inactive) | 34.1 µM (inactive) | 39.5 µM (inactive) | 20.7 µM (inactive) | 19.5 µM (inactive) | 19.5 µM (inactive) | 40.8 µM (inactive) | 18.2 µM (inactive) | 19.7 µM (inactive)
CCCCCCCCP(=O)(O)OP(=O)(O)OCC1OC(n2ccc(N)nc2=O)C(O)C1O (stereo not drawn) | > 100 µM (inactive) | > 100 µM (inactive) | > 100 µM (inactive) | > 100 µM (inactive) | > 100 µM (inactive) | > 100 µM (inactive) | > 100 µM (inactive) | – | > 100 µM (inactive) | > 100 | > 100 µM (inactive) | > 100 µM (inactive) | > 100 µM (inactive) | > 100 µM (inactive) | > 100 µM (inactive) | > 100 µM (inactive) | > 100 µM (inactive) | > 100 µM (inactive) | – | > 100 µM (inactive)
